Read-outs that look alike come from different tables or passages of the source.
How the values were obtained:
[1] = system: bacteria, fungi and yeasts; conditions: general statement, no test described, cited from earlier work
Aspergillus terreus = test: Minimum inhibitory concentration (MIC) in agar; type: cell-based; conditions: Aspergillus terreus (F)
Method: (§1) Below, the antimicrobial efficacy of a composition according to the invention consisting of 50% by weight of isorbide caprylate 1 and 50% by weight of ethylhexylglycerin against bacteria, fungi and yeasts is examined (hereinbelow, the composition is referred to as “composition A”). For the tests with bacteria, composition A was diluted with butyl polyglycol and then, at 50° C., added to liquid CASO agar (casein-peptone agar) buffered to pH 7 (+/−0.2) in various concentrations (hereinbelow referred to as compositions B1, B2, etc.). For the tests with fungi and yeasts, composition A was diluted with butyl polyglycol and then added to liquid Sabouraud 4% dextrose agar buffered to pH 5.6 (+/−0.2) in various concentrations (hereinbelow referred to as compositions PH1, PH2, etc.). The compositions B1, B2, etc. and PH1, PH2 etc. were each poured into Petri dishes and each inoculated with identical amounts of bacteria, fungi and yeasts. The minimum inhibitory concentration (MIC) is the concentration at which inhibition of the growth of the bacteria, fungi and yeasts in the compositions B1, B2, etc. and PH1, PH2, etc. occurs.
(§2) The minimum inhibitory concentrations for the pure substances isosorbide caprylate 1 and ethylhexylglycerin were determined analogously.
(§3) The values determined for the minimum inhibitory concentrations “MIC mixture”, stated in Table 1 below, are based on the concentrations of composition A.
(§4) The values determined for the minimum inhibitory concentrations “QA” and “QB”, stated in Table 1 below, have already been corrected for the dilution effect of the butyl polyglycol.
(§5) From the minimum inhibitory concentrations determined, it is then possible to calculate whether a synergistic effect is present or not. Whether a synergistic effect is present is calculated according to F. C. Kull et al., Applied Microbiology 1961, 9, 538 using the formula below: […]
(§6) where • Qa is the minimum inhibitory concentration of isosorbide caprylate 1 in the mixture employed, • QA is the minimum inhibitory concentration of isosorbide caprylate 1, • Qb is the minimum inhibitory concentration of ethylhexylglycerin in the mixture employed and • QB is the minimum inhibitory concentration of ethylhexylglycerin.
(§7) The values for Qa and Qb are determined from the values for the mixtures (“MIC mixture”) by multiplying the minimum inhibitory concentrations determined for Qa with the factor 0.5 and for Qb with the factor 0.5, because of the proportions of the ingredients—50% by weight of isosorbide caprylate 1 and 50% by weight of ethylhexylglycerin—in composition A according to the invention examined.
(§8) If an SE value>1 is obtained, an antagonistic effect is present. If SE=1, the compounds are neutral with respect to one another, and if SE<1, a synergistic effect is present.
(§9) Analogously to the determination of the antimicrobial activity according to the above example B), the antimicrobial activity of a mixture comprising, firstly, 89.6% by weight of isosorbide dicaprylate and 9.4% by weight of isosorbide monocaprylate (remainder: 1% by weight) (hereinbelow referred to as “isosorbide dicaprylate”) and, secondly, pure isosorbide was determined in further test series.

Proteus vulgaris = test: Minimum inhibitory concentration (MIC) in agar; type: cell-based; conditions: Proteus vulgaris (B)
Method: as §1, §2, §3, §4, §5, §6, §7, §8, §9

Candida albicans = test: Minimum inhibitory concentration (MIC) in agar; type: cell-based; conditions: Candida albicans (Y)
Method: as §1, §2, §3, §4, §5, §6, §7, §8, §9

Aspergillus brasiliensis = test: Minimum inhibitory concentration (MIC) in agar; type: cell-based; conditions: Aspergillus brasiliensis (F)
Method: as §1, §2, §3, §4, §5, §6, §7, §8, §9

Staphylococcus aureus = test: Minimum inhibitory concentration (MIC) in agar; type: cell-based; conditions: Staphylococcus aureus (B)
Method: as §1, §2, §3, §4, §5, §6, §7, §8, §9

Citrobacter freundii = test: Minimum inhibitory concentration (MIC) in agar; type: cell-based; conditions: Citrobacter freundii (B)
Method: as §1, §2, §3, §4, §5, §6, §7, §8, §9

Penicillium minioluteum = test: Minimum inhibitory concentration (MIC) in agar; type: cell-based; conditions: Penicillium minioluteum (F)
Method: as §1, §2, §3, §4, §5, §6, §7, §8, §9

Pseudomonas aeruginosa = test: Minimum inhibitory concentration (MIC) in agar; type: cell-based; conditions: Pseudomonas aeruginosa (B)
Method: as §1, §2, §3, §4, §5, §6, §7, §8, §9

Klebsiella pneumoniae = test: Minimum inhibitory concentration (MIC) in agar; type: cell-based; conditions: Klebsiella pneumoniae (B)
Method: as §1, §2, §3, §4, §5, §6, §7, §8, §9

Fusarium solani = test: Minimum inhibitory concentration (MIC) in agar; type: cell-based; conditions: Fusarium solani (F)
Method: as §1, §2, §3, §4, §5, §6, §7, §8, §9

Escherichia coli = test: Minimum inhibitory concentration (MIC) in agar; type: cell-based; conditions: Escherichia coli (B)
Method: as §1, §2, §3, §4, §5, §6, §7, §8, §9

Penicillium funicolosium = test: Minimum inhibitory concentration (MIC) in agar; type: cell-based; conditions: Penicillium funicolosium (F)
Method: as §1, §2, §3, §4, §5, §6, §7, §8, §9

Enterobacter aerogenes = test: Minimum inhibitory concentration (MIC) in agar; type: cell-based; conditions: Enterobacter aerogenes (B)
Method: as §1, §2, §3, §4, §5, §6, §7, §8, §9

Pseudomonas oleovorans = test: Minimum inhibitory concentration (MIC) in agar; type: cell-based; conditions: Pseudomonas oleovorans (B)
Method: as §1, §2, §3, §4, §5, §6, §7, §8, §9

[2] = system: bacteria, fungi and yeasts; test: Antimicrobial efficacy, overall statements; type: cell-based
Method: Below, the antimicrobial efficacy of a composition according to the invention consisting of 50% by weight of isorbide caprylate 1 and 50% by weight of ethylhexylglycerin against bacteria, fungi and yeasts is examined (hereinbelow, the composition is referred to as “composition A”). For the tests with bacteria, composition A was diluted with butyl polyglycol and then, at 50° C., added to liquid CASO agar (casein-peptone agar) buffered to pH 7 (+/−0.2) in various concentrations (hereinbelow referred to as compositions B1, B2, etc.). For the tests with fungi and yeasts, composition A was diluted with butyl polyglycol and then added to liquid Sabouraud 4% dextrose agar buffered to pH 5.6 (+/−0.2) in various concentrations (hereinbelow referred to as compositions PH1, PH2, etc.). […]
as §2, §9

[3] = Sabouraud 4% dextrose agar pH 5.6 (+/-0.2), read-out: minimum inhibitory concentration (MIC), meas.
[4] = CASO agar pH 7 (+/-0.2), read-out: minimum inhibitory concentration (MIC), meas.
[5] = MIC mixture x factor 0.5 (composition A)
[6] = Sabouraud 4% dextrose agar pH 5.6 (+/-0.2)

CCCCCCCC(=O)O [caprylic acid]
antimicrobial activity (in words) ([1]; at a pH of 6 or above): no antimicrobial activity | antimicrobial efficacy (in words) [1]: antimicrobially effective

O[C@@H]1CO[C@H]2[C@@H]1OC[C@@H]2O [isosorbide]
MIC (Aspergillus terreus; [3]): 10000 µg/mL | MIC (Proteus vulgaris; [4]): 10000 µg/mL | MIC (Candida albicans; [3]): 10000 µg/mL | MIC (Aspergillus brasiliensis; [3]): 10000 µg/mL | MIC (Staphylococcus aureus; [4]): 10000 µg/mL | MIC (Citrobacter freundii; [4]): 10000 µg/mL | MIC (Penicillium minioluteum; Talaromyces minioluteus, Sabouraud 4% dextrose agar pH 5.6 (+/-0.2), read-out: minimum inhibitory concentration (MIC), meas.): 10000 µg/mL | MIC (Pseudomonas aeruginosa; [4]): 10000 µg/mL | MIC (Klebsiella pneumoniae; [4]): 10000 µg/mL | MIC (Fusarium solani; [3]): 10000 µg/mL | MIC (Escherichia coli; [4]): 10000 µg/mL | MIC (Penicillium funicolosium; [3]): 10000 µg/mL | MIC (Enterobacter aerogenes; Klebsiella aerogenes, CASO agar pH 7 (+/-0.2), read-out: minimum inhibitory concentration (MIC), meas.): 10000 µg/mL | MIC (Pseudomonas oleovorans; Ectopseudomonas oleovorans, CASO agar pH 7 (+/-0.2), read-out: minimum inhibitory concentration (MIC), meas.): 10000 µg/mL | antimicrobial activity (in words) ([2]; summary of the results of Table 2): neither isosorbide nor isosorbide dicaprylate are antimicrobially active

isosorbide monocaprylate
antimicrobial activity (in words) ([2]; concluded from the MICs of isosorbide caprylate 1 and of its other constituents): significant antimicrobial activity

CCCCC(CC)COCC(O)CO (stereo not shown) [ethylhexylglycerin]
minimum inhibitory concentration of the component in the mixture employed (Qa / Qb), calc. (Aspergillus terreus; [5]): 250 ppm | minimum inhibitory concentration (MIC), meas. (Aspergillus terreus; [6]): 1000 ppm | minimum inhibitory concentration (MIC), meas. (Proteus vulgaris; CASO agar pH 7 (+/-0.2)): 1500 ppm | minimum inhibitory concentration of the component in the mixture employed (Qa / Qb), calc. (Proteus vulgaris; [5]): 750 ppm | minimum inhibitory concentration of the component in the mixture employed (Qa / Qb), calc. (Candida albicans; [5]): 375 ppm | minimum inhibitory concentration (MIC), meas. (Candida albicans; [6]): 1000 ppm | minimum inhibitory concentration of the component in the mixture employed (Qa / Qb), calc. (Aspergillus brasiliensis; [5]): 375 ppm | minimum inhibitory concentration (MIC), meas. (Aspergillus brasiliensis; [6]): 1000 ppm | minimum inhibitory concentration (MIC), meas. (Staphylococcus aureus; CASO agar pH 7 (+/-0.2)): 750 ppm | minimum inhibitory concentration of the component in the mixture employed (Qa / Qb), calc. (Staphylococcus aureus; [5]): 500 ppm | minimum inhibitory concentration (MIC), meas. (Citrobacter freundii; CASO agar pH 7 (+/-0.2)): 1500 ppm | minimum inhibitory concentration of the component in the mixture employed (Qa / Qb), calc. (Citrobacter freundii; [5]): 750 ppm | minimum inhibitory concentration of the component in the mixture employed (Qa / Qb), calc. (Penicillium minioluteum; [5]): 250 ppm | minimum inhibitory concentration (MIC), meas. (Penicillium minioluteum; [6]): 750 ppm | minimum inhibitory concentration (MIC), meas. (Pseudomonas aeruginosa; CASO agar pH 7 (+/-0.2)): 5000 ppm | minimum inhibitory concentration of the component in the mixture employed (Qa / Qb), calc. (Pseudomonas aeruginosa; [5]): 2500 ppm | minimum inhibitory concentration (MIC), meas. (Klebsiella pneumoniae; CASO agar pH 7 (+/-0.2)): 2000 ppm | minimum inhibitory concentration of the component in the mixture employed (Qa / Qb), calc. (Klebsiella pneumoniae; [5]): 1000 ppm | minimum inhibitory concentration of the component in the mixture employed (Qa / Qb), calc. (Fusarium solani; [5]): 125 ppm | minimum inhibitory concentration (MIC), meas. (Fusarium solani; [6]): 500 ppm | minimum inhibitory concentration (MIC), meas. (Escherichia coli; CASO agar pH 7 (+/-0.2)): 1000 ppm | minimum inhibitory concentration of the component in the mixture employed (Qa / Qb), calc. (Escherichia coli; [5]): 750 ppm | minimum inhibitory concentration of the component in the mixture employed (Qa / Qb), calc. (Penicillium funicolosium; [5]): 125 ppm | minimum inhibitory concentration (MIC), meas. (Penicillium funicolosium; [6]): 500 ppm | minimum inhibitory concentration (MIC), meas. (Enterobacter aerogenes; CASO agar pH 7 (+/-0.2)): 2000 ppm | minimum inhibitory concentration of the component in the mixture employed (Qa / Qb), calc. (Enterobacter aerogenes; [5]): 2500 ppm | minimum inhibitory concentration (MIC), meas. (Pseudomonas oleovorans; CASO agar pH 7 (+/-0.2)): 5000 ppm | minimum inhibitory concentration of the component in the mixture employed (Qa / Qb), calc. (Pseudomonas oleovorans; [5]): 5000 ppm

From US20160000080A1, “COMPOSITIONS CONTAINING ISOSORBIDE MONOESTER AND ALIPHATIC VICINAL DIOLS” (CLARIANT INTERNATIONAL LTD., priority 2011, published 2016)
